Experimental data as given in patent publication US11807835B2, “Detergent compositions containing a stabilized enzyme by phosphonates” (ECOLAB USA INC., priority 2016, dated 2023).

Tested on: amylase
Experiment: Amylase activity retention in detergent use solution (4000 ppm, 5 GPG water; ethylidene substrate EPS, HEPES buffer pH 8.0)
Type: biochemical
Method: The enzyme activities in the detergents with different phosphonate levels were tested at 4000 ppm in 5 grains per gallon (GPG) water at 120° F. with various time points collected up to 4 hours, after a use solution was generated from the detergent composition. During the tests, the samples at different time points were collected and immediately frozen in an acetone/dry ice bath and stored in −80° C. before the activity of the enzyme was evaluated. For the use of such an assay, t=0 min was the reference point for 100% enzyme activity.
Assays of enzyme activity in formulations (% retention) were conducted to simulate a presoak condition in a beaker using the chemistry, temperature, and pH conditions relevant to manual warewash or presoak applications. Enzyme activity is an indicator of the stability of the enzyme in the detergent, specifically in an aqueous use solution within a sump (which is under conditions of high pH, temperature and dilution).
Enzyme activity under presoak or manual warewash conditions was traced quantitatively using a standard protease assay. Samples were prepared under bench top conditions, whereby the use solution from a detergent composition or detergent was obtained and maintained at a presoak or manual warewash temperature in a stirring water bath. After the time course for assessing enzyme stability is initiated, aliquots were taken at various time points and flash-frozen. A time=0 sample was prepared for each series by dissolving the detergent formulation at room temperature, mixing thoroughly, and flash freezing. Samples were thawed and diluted as necessary in an assay buffer usually for use in the protease assay. A glycine buffer at pH 9.0 is used here. The assay monitored the direct reaction of the protease on a small, commercially available peptidyl substrate, with liberation of the product providing correlation to the active enzyme content. The product was detected using a plate reader with an appreciable dynamic range (upper absorbance limit of the instrument >3.5). Enzyme activity levels were assessed relative to a calibration curve with average values for replicate tests used to map protease stability under presoak or manual warewash use conditions. Enzyme retention at each time point was calculated as the % enzyme activity relative to the time=0 sample.
The analysis by lipase and amylase assay was conducted similarly, except with a different substrate and buffers. For lipase activity, the substrate is p-nitrophenyl valerate, and for amylase, the substrate is an ethylidene substrate (EPS). The buffer used in lipase assay is TRIS (Tris(hydroxymethyl)aminomethane) buffer at pH 8.0, and in amylase assay HEPES (4-(2-hydroxyethyl)-1-piperazineethanesulfonic acid) buffer at pH 8.0.

O=P(O)(O)CN(CP(=O)(O)O)CP(=O)(O)O [ATMP, Aminotri (methylene phosphonic acid)] was tested, and the “Relative Amylase Enzyme Activity” value (All Ash formula, phosphonate 0.3 wt-%, use solution at 120° F., time 0 min) was 98.49%, the “Relative Amylase Enzyme Activity” value (All Ash formula, phosphonate 0.3 wt-%, use solution at 120° F., time 5 min) was 100.00% and the “Relative Amylase Enzyme Activity” value (All Ash formula, phosphonate 0.3 wt-%, use solution at 120° F., time 10 min) was 98.40%. The “Relative Amylase Enzyme Activity” value (All Ash formula, phosphonate 0.3 wt-%, use solution at 120° F., time 20 min) was 97.90%, the “Relative Amylase Enzyme Activity” value (All Ash formula, phosphonate 0.3 wt-%, use solution at 120° F., time 40 min) was 91.03% and the “Relative Amylase Enzyme Activity” value (All Ash formula, phosphonate 0.3 wt-%, use solution at 120° F., time 60 min) was 86.91%. The “Relative Amylase Enzyme Activity” value (All Ash formula, phosphonate 0.3 wt-%, use solution at 120° F., time 90 min) was 87.68%, the “Relative Amylase Enzyme Activity” value (All Ash formula, phosphonate 0.3 wt-%, use solution at 120° F., time 120 min) was 80.93% and the “Relative Amylase Enzyme Activity” value (All Ash formula, phosphonate 0.3 wt-%, use solution at 120° F., time 150 min) was 83.80%. For the same molecule, the “Relative Amylase Enzyme Activity” value (All Ash formula, phosphonate 0.3 wt-%, use solution at 120° F., time 180 min) was 80.91%, the “Relative Amylase Enzyme Activity” value (All Ash formula, phosphonate 0.3 wt-%, use solution at 120° F., time 210 min) was 84.34% and the “Relative Amylase Enzyme Activity” value (All Ash formula, phosphonate 0.3 wt-%, use solution at 120° F., time 240 min) was 83.21%. For the same molecule, the “amylase stability in all ash formula” value (all ash formula, versus same composition with PBTC or HEDP without amine(s), FIG. 4D) was “more stable”, the “Relative Amylase Enzyme Activity” value (base formula, phosphonate 0.3 wt-%, use solution at 120° F., time 0 min) was 100.00% and the “Relative Amylase Enzyme Activity” value (base formula, phosphonate 0.3 wt-%, use solution at 120° F., time 5 min) was 89.47%. For the same molecule, the “Relative Amylase Enzyme Activity” value (base formula, phosphonate 0.3 wt-%, use solution at 120° F., time 10 min) was 82.94%, the “Relative Amylase Enzyme Activity” value (base formula, phosphonate 0.3 wt-%, use solution at 120° F., time 20 min) was 79.67% and the “Relative Amylase Enzyme Activity” value (base formula, phosphonate 0.3 wt-%, use solution at 120° F., time 40 min) was 90.79%. The “Relative Amylase Enzyme Activity” value (base formula, phosphonate 0.3 wt-%, use solution at 120° F., time 60 min) was 89.94%, the “Relative Amylase Enzyme Activity” value (base formula, phosphonate 0.3 wt-%, use solution at 120° F., time 90 min) was 94.47% and the “Relative Amylase Enzyme Activity” value (base formula, phosphonate 0.3 wt-%, use solution at 120° F., time 120 min) was 95.08%. The “Relative Amylase Enzyme Activity” value (base formula, phosphonate 0.3 wt-%, use solution at 120° F., time 150 min) was 94.00%, the “Relative Amylase Enzyme Activity” value (base formula, phosphonate 0.3 wt-%, use solution at 120° F., time 180 min) was 90.87% and the “Relative Amylase Enzyme Activity” value (base formula, phosphonate 0.3 wt-%, use solution at 120° F., time 210 min) was 94.61%. For the same molecule, the “Relative Amylase Enzyme Activity” value (base formula, phosphonate 0.3 wt-%, use solution at 120° F., time 240 min) was 96.54%, the “Relative Amylase Enzyme Activity” value (base formula, phosphonate 0.6 wt-%, use solution at 120º F., time 0 min) was 100.00% and the “Relative Amylase Enzyme Activity” value (base formula, phosphonate 0.6 wt-%, use solution at 120º F., time 5 min) was 87.10%. For the same molecule, the “Relative Amylase Enzyme Activity” value (base formula, phosphonate 0.6 wt-%, use solution at 120º F., time 10 min) was 92.19%, the “Relative Amylase Enzyme Activity” value (base formula, phosphonate 0.6 wt-%, use solution at 120º F., time 20 min) was 80.12% and the “Relative Amylase Enzyme Activity” value (base formula, phosphonate 0.6 wt-%, use solution at 120º F., time 40 min) was 77.64%. The “Relative Amylase Enzyme Activity” value (base formula, phosphonate 0.6 wt-%, use solution at 120º F., time 60 min) was 91.13%, the “Relative Amylase Enzyme Activity” value (base formula, phosphonate 0.6 wt-%, use solution at 120º F., time 90 min) was 92.19% and the “Relative Amylase Enzyme Activity” value (base formula, phosphonate 0.6 wt-%, use solution at 120º F., time 120 min) was 93.02%. For the same molecule, the “Relative Amylase Enzyme Activity” value (base formula, phosphonate 0.6 wt-%, use solution at 120º F., time 150 min) was 101.54%, the “Relative Amylase Enzyme Activity” value (base formula, phosphonate 0.6 wt-%, use solution at 120º F., time 180 min) was 80.83% and the “Relative Amylase Enzyme Activity” value (base formula, phosphonate 0.6 wt-%, use solution at 120º F., time 210 min) was 92.78%. The “Relative Amylase Enzyme Activity” value (base formula, phosphonate 0.6 wt-%, use solution at 120º F., time 240 min) was 86.75%, the “Relative Amylase Enzyme Activity” value (base formula, phosphonate at 0.1% elemental phosphorus level, use solution at 120º F., time 0 min) was 82.19% and the “Relative Amylase Enzyme Activity” value (base formula, phosphonate at 0.1% elemental phosphorus level, use solution at 120º F., time 5 min) was 100.00%. For the same molecule, the “Relative Amylase Enzyme Activity” value (base formula, phosphonate at 0.1% elemental phosphorus level, use solution at 120º F., time 10 min) was 107.32%, the “Relative Amylase Enzyme Activity” value (base formula, phosphonate at 0.1% elemental phosphorus level, use solution at 120º F., time 20 min) was 106.35% and the “Relative Amylase Enzyme Activity” value (base formula, phosphonate at 0.1% elemental phosphorus level, use solution at 120º F., time 40 min) was 100.35%. The “Relative Amylase Enzyme Activity” value (base formula, phosphonate at 0.1% elemental phosphorus level, use solution at 120º F., time 60 min) was 106.09%, the “Relative Amylase Enzyme Activity” value (base formula, phosphonate at 0.1% elemental phosphorus level, use solution at 120º F., time 90 min) was 101.79% and the “Relative Amylase Enzyme Activity” value (base formula, phosphonate at 0.1% elemental phosphorus level, use solution at 120º F., time 120 min) was 104.38%. For the same molecule, the “Relative Amylase Enzyme Activity” value (base formula, phosphonate at 0.1% elemental phosphorus level, use solution at 120º F., time 150 min) was 101.75%, the “Relative Amylase Enzyme Activity” value (base formula, phosphonate at 0.1% elemental phosphorus level, use solution at 120º F., time 180 min) was 103.89% and the “Relative Amylase Enzyme Activity” value (base formula, phosphonate at 0.1% elemental phosphorus level, use solution at 120º F., time 210 min) was 100.38%. For the same molecule, the “Relative Amylase Enzyme Activity” value (base formula, phosphonate at 0.1% elemental phosphorus level, use solution at 120º F., time 240 min) was 107.10%.
